Laboratory results: article PMC7179653 (Antimicrobial Agents and Chemotherapy, 2020)
Where two headings read alike, the source gives them in different places.

How the values were obtained:
[1] = MAD study: nacubactam pharmacokinetics, multiple doses and single dose alone or with meropenem; type: in vivo, human; details: for CL renal at 7 days / CL renal: plasma and urine; for AUC(0-t): read-out: AUC0–8h; for Tmax at 7 days: day 7, n = 6, median (range)
Method: The MAD study consisted of three parts (Fig. 1). […] Participants were enrolled in two sequential cohorts (cohort 1, followed by cohort 2). […] Participants were also enrolled in two sequential cohorts (cohort 3, followed by cohort 4). […] A washout period of approximately 24 h between treatments was provided. Study treatments were administered as 30-min (SAD study) or 90-min (MAD study) i.v. infusions, the latter to investigate the pharmacokinetics using a longer infusion time, which is commonly used to increase the time above the MIC of β-lactams ([15]). The choice of a 90-min infusion time for the MAD study was dictated by the stability and toxicology data available at the time the study was being designed. […] Safety assessments included monitoring of AEs, laboratory safety tests (hematology, serum chemistry, and urinalysis), 12-lead ECG (discrete recordings and 24-h Holter recording), and vital signs (blood pressure, pulse rate, and body temperature). In the SAD study, safety assessments were performed predose at screening, at day 1, postdose periodically on days 1, 2, and 7 (follow-up), and at early withdrawal, if relevant. […] In the MAD study, safety assessments were done predose at screening, at day 2, postdose periodically on days 1, 2, 4, 7, and 8, on days 13 to 15 (follow-up), and at early withdrawal, if relevant. […] On all other days, a single predose sample was collected for pharmacokinetic evaluation prior to the morning infusion. Blood was collected into lithium-heparin tubes and stored at a nominal –80°C temperature until analysis.

[2] = Intensive ECG monitoring and exposure-response analysis of QTcF; type: in vivo, human
Method: Safety assessments included monitoring of AEs, laboratory safety tests (hematology, serum chemistry, and urinalysis), 12-lead ECG (discrete recordings and 24-h Holter recording), and vital signs (blood pressure, pulse rate, and body temperature). In the SAD study, safety assessments were performed predose at screening, at day 1, postdose periodically on days 1, 2, and 7 (follow-up), and at early withdrawal, if relevant. […] In the MAD study, safety assessments were done predose at screening, at day 2, postdose periodically on days 1, 2, 4, 7, and 8, on days 13 to 15 (follow-up), and at early withdrawal, if relevant. […] On all other days, a single predose sample was collected for pharmacokinetic evaluation prior to the morning infusion. Blood was collected into lithium-heparin tubes and stored at a nominal –80°C temperature until analysis.

[3] = MAD part 3, single dose (day 1 or 2) nacubactam 2,000 mg alone, geometric mean (%CV)
[4] = MAD part 3, single dose (day 3) nacubactam 2,000 mg plus meropenem 2,000 mg, geometric mean (%CV)
[5] = human, plasma, intravenous, 1000 mg, MAD part 1, 1,000 mg q8h for 7 days, day 7, n = 6, geometric mean (%CV)
[6] = human, plasma, intravenous, 2000 mg
[7] = human, plasma, intravenous, 2000 mg, MAD part 1, 2,000 mg q8h for 7 days, day 7, n = 6, geometric mean (%CV)
[8] = human, plasma, intravenous, 2000 mg, MAD part 3, single dose (day 1 or 2) nacubactam 2,000 mg alone, geometric mean (%CV)
[9] = human, plasma, intravenous, 4000 mg, MAD part 2, 4,000 mg q8h for 7 days, day 9, n = 6, geometric mean (%CV)
[10] = human, plasma, intravenous, MAD part 3, single dose (day 3) nacubactam 2,000 mg plus meropenem 2,000 mg, geometric mean (%CV)

NCCONC(=O)[C@@H]1CC[C@@H]2CN1C(=O)N2OS(=O)(=O)O [Nacubactam]
Fe%0–8h (cumulative percentage of dose excreted in urine from time zero to 8 h) ([1]; MAD part 1, 1,000 mg q8h for 7 days, day 7, n = 6, geometric mean (%CV)): 81.9 (1) %
Fe%0–8h (cumulative percentage of dose excreted in urine from time zero to 8 h) ([1]; MAD part 1, 2,000 mg q8h for 7 days, day 7, n = 6, geometric mean (%CV)): 87.0 (11) %
Fe%0–8h (cumulative percentage of dose excreted in urine from time zero to 8 h) ([1]; MAD part 2, 4,000 mg q8h for 7 days, day 9, n = 6, geometric mean (%CV)): 83.9 (9) %
Fe%0–8h (cumulative percentage of dose excreted in urine from time zero to 8 h) [1, 3]: 85.5 (13) %
Fe%0–24h (cumulative percentage of dose excreted in urine from time zero to 24 h) [1, 3]: 91.1 (10) %
Fe%0–8h (cumulative percentage of dose excreted in urine from time zero to 8 h) [1, 4]: 82.7 (12) %
Fe%0–24h (cumulative percentage of dose excreted in urine from time zero to 24 h) [1, 4]: 88.4 (11) %
accumulation in plasma ([1]; following 7 days of q8h dosing): minimal accumulation
route of elimination ([1]; following single and multiple doses): excreted largely unchanged into urine
contribution of nonrenal elimination processes on clearance ([1]; from difference between CL and CLR): < 20%
CL renal at 7 days ([1]; human, intravenous, 1000 mg, MAD part 1, 1,000 mg q8h for 7 days, day 7, n = 6, geometric mean (%CV)): 112 mL/min
CL renal at 7 days ([1]; human, intravenous, 2000 mg, MAD part 1, 2,000 mg q8h for 7 days, day 7, n = 6, geometric mean (%CV)): 104 mL/min
CL renal ([1]; human, intravenous, 2000 mg, MAD part 3, single dose (day 1 or 2) nacubactam 2,000 mg alone, geometric mean (%CV), read-out: CLR (converted)): 142 mL/min
CL renal at 7 days ([1]; human, intravenous, 4000 mg, MAD part 2, 4,000 mg q8h for 7 days, day 9, n = 6, geometric mean (%CV)): 113 mL/min
CL renal ([1]; human, intravenous, MAD part 3, single dose (day 3) nacubactam 2,000 mg plus meropenem 2,000 mg, geometric mean (%CV), read-out: CLR (converted)): 135 mL/min
CL renal ([1]; human, intravenous, single (1,000 to 8,000 mg) and multiple (1,000 to 4,000 mg) doses, read-out: estimated CLR, range): 91.7 to 142 mL/min
Cmax at 7 days [1, 5]: 36.6 µg/mL
half-life [1, 5]: 2.66 h
AUC(0-t) [1, 5]: 118 µg·h/mL
clearance ([1]; human, plasma, intravenous, 1000 mg, MAD part 1, 1,000 mg q8h for 7 days, day 7, n = 6, geometric mean (%CV), read-out: CL (converted)): 142 mL/min
Vd at 7 days ([1]; human, plasma, intravenous, 1000 mg, MAD part 1, 1,000 mg q8h for 7 days, day 7, n = 6, geometric mean (%CV), read-out: Vss): 21.9 L
Tmax at 7 days ([1]; human, plasma, intravenous, 1000 mg, MAD part 1, 1,000 mg q8h for 7 days): 1 h
AUC(0-inf) [1, 6]: 225 µg·h/mL
Cmax [1, 6]: 66 µg/mL
Tmax [1, 6]: 1 h
Cmax at 7 days [1, 7]: 89.6 µg/mL
half-life [1, 7]: 2.66 h
AUC(0-t) [1, 7]: 279 µg·h/mL
clearance ([1]; human, plasma, intravenous, 2000 mg, MAD part 1, 2,000 mg q8h for 7 days, day 7, n = 6, geometric mean (%CV), read-out: CL (converted)): 119 mL/min
Vd at 7 days ([1]; human, plasma, intravenous, 2000 mg, MAD part 1, 2,000 mg q8h for 7 days, day 7, n = 6, geometric mean (%CV), read-out: Vss): 16.5 L
half-life [1, 8]: 2.63 h
AUC(0-t) [1, 8]: 201 µg·h/mL
clearance ([1]; human, plasma, intravenous, 2000 mg, MAD part 3, single dose (day 1 or 2) nacubactam 2,000 mg alone, geometric mean (%CV), read-out: CL (converted)): 148 mL/min
Tmax at 7 days ([1]; human, plasma, intravenous, 2000 mg, MAD part 1, 2,000 mg q8h for 7 days): 1.33 h
Vd ([1]; human, plasma, intravenous, 2000 mg, read-out: Vss): 26.2 L
Cmax at 7 days [1, 9]: 179 µg/mL
half-life [1, 9]: 2.69 h
AUC(0-t) [1, 9]: 496 µg·h/mL
clearance ([1]; human, plasma, intravenous, 4000 mg, MAD part 2, 4,000 mg q8h for 7 days, day 9, n = 6, geometric mean (%CV), read-out: CL (converted)): 134 mL/min
Vd at 7 days ([1]; human, plasma, intravenous, 4000 mg, MAD part 2, 4,000 mg q8h for 7 days, day 9, n = 6, geometric mean (%CV), read-out: Vss): 20.1 L
half-life [1, 10]: 2.38 h
AUC(0-t) [1, 10]: 204 µg·h/mL
clearance ([1]; human, plasma, intravenous, MAD part 3, single dose (day 3) nacubactam 2,000 mg plus meropenem 2,000 mg, geometric mean (%CV), read-out: CL (converted)): 149 mL/min
clearance ([1]; human, plasma, intravenous, single (1,000 to 8,000 mg) and multiple (1,000 to 4,000 mg) doses, read-out: estimated CL, range on average): 120 to 148 mL/min
treatment estimate, linear model of change in QTcF vs plasma concentration ([2]; 90% CI, 3.8879 to 1.9931, P = 0.59): 0.9474
slope estimate, linear model of change in QTcF vs plasma concentration ([2]; P = 0.73): 0.00422
upper limit of the two-sided 90% CI of predicted change from baseline in QTcF ([2]; at the Cmax of 325 μg/ml, each of the three models): < 10 ms
predicted mean change from baseline in QTcF ([2]; at the Cmax of 325 μg/ml, each of the three models (linear, quadratic, log-linear)): < 3 ms
effect on QTc interval duration, other ECG intervals, or ECG morphology ([2]; nacubactam alone, intensive ECG monitoring): did not reveal any significant effects
